# According to patent publication EP0974351A2, “Medicament for preventing and treating gastrointestinal damage” (JOUVEINAL, priority 1998, dated 2000):
# What was measured:
# [1] = tested on: gastric lesions caused by indomethacin; assay: Indomethacin-induced gastric lesions in rats (gabapentin pretreatment); assay type: in vivo, Male Sprague-Dawley rats; conditions: for gastric lesion (square area of visible lesions): indomethacin alone 42.6 ± 5.2
# Method: Gabapentin was evaluated in animals to determine its ability to prevent gastric lesions otherwise caused by indomethacin.
# Male Sprague-Dawley rats weighing 240 to 250 g were fasted for 24 hours and allowed free access to water prior to experiment. All test drugs were given intragastrically. Rats were pretreated with different doses of gabapentin at doses of 40 and 60 mg. Thirty minutes later indomethacin (25 mg/kg) was administered. Another group of rats received 10 mg of gabapentin twice, 3 hours apart, followed by indomethacin administration. Three hours after indomethacin treatment, the rats were killed and gastric lesions were assessed. The severity of the lesions were determined by the measurement of the square area (mm^2) of visible lesions.
# Audiogenic Convulsions = assay: Audiogenic seizures after ethanol withdrawal in mice; assay type: in vivo, Male albino mice of the outbred TO strain; conditions: for Percentage of Group Showing Clonic Convulsions: Ethanol Diet, 8 hours from ethanol withdrawal, ethanol/saline 80
# Method: (§1) Male albino mice of the outbred TO strain (Bantin and Kingman, UK) were used in all studies. The weight ranged from 25 to 35 g, with no more than a 5 g range in any single experiment. The mice were housed, eight per cage, at 21°C ± 1°C, with 55 ± 10% relative humidity, and a 12-hour light/dark cycle with the light phase between 09:00 to 21:00. All mice received ad libitum access to tap water and standard laboratory chow (RM-1, Special Diet Services, UK) until their use in experiments or until their diet was replaced with a liquid diet.
# (§2) Ethanol was administered in a liquid diet schedule. All mice received control diet for an initial 2-day period. Ethanol treated mice then received a diet containing 3.5% (v/v) ethanol/water for 2 days, followed by a diet containing 7% ethanol for a further 5 days. The average intake was 22 to 30 g/kg/day. Control groups were pair-fed a control diet, balanced isocalorifically to match the ethanol containing diet. There were no differences in the weights of the ethanol-treated and control mice at the end of the treatment periods. When mice were withdrawn from the ethanol (between 07:00 AM and 09:00 AM), they were provided with tap water until their use in experiments.
# (§3) Gabapentin was dissolved in saline, the solution being made freshly each testing day. Intraperitoneal (i.p.) injections of either gabapentin, 10 mL/kg, or saline, were given immediately on withdrawal from the ethanol treatment, in the studies on the handling responses and 2 hours prior to measurement of audiogenic seizures. In the experiments using the elevated plus maze, gabapentin or saline was injected i.p. at 8 hours after the removal of the ethanol diet, and the mice placed on the plus maze 60 minutes after the injections. In the studies on motor co-ordination (ataxia) and on locomotor activity, gabapentin or saline was injected to ethanol-naive chow fed mice immediately before testing. Measurements were then made for 60 minutes for the ataxia study, and for 30 minutes in the case of the locomotor activity.
# At 8 and 12 hours from ethanol withdrawal, the susceptibility to sound-induced convulsions was measured in separate groups of ten mice. Mice were tested individually in a sound-proof perspex box 30 × 30 × 30 cm containing an electric door-bell. The bell was rung for 2 minutes or until the first signs of convulsions. The number of mice which responded by wild-running and clonic convulsions was counted. The mice were humanely killed as soon as a full convulsion was seen.
# The results of the handling response ratings were compared by nonparametric two-way analysis of variance, designed for repeat measures on the same animal. The results of the area under the curve calculations were compared by the Mann-Whitney U-test. The convulsion incidence was analyzed by Fisher's exact probability test. The measurements from the elevated plus maze were subjected to one-way analysis of variance, followed by a Bonuferroni multiple comparison test, comparing all groups to the control group which received saline injections, and also both ethanol treated groups which received gabapentin to the ethanol treated group which received saline. The ataxia measurements were analyzed by the Mann-Whitney U-test and the locomotor activity by Student's t-test.
# Anxiety-Related Behavior = assay: Elevated plus maze, anxiety-related behavior 8 hours after ethanol withdrawal in mice; assay type: in vivo, Male albino mice of the outbred TO strain
# Method: as §1, §2, §3
# Mice were withdrawn from the ethanol diet at 7:00 AM and tested for anxiety-related behavior 8 hours later using a murine elevated plus-maze. It was constructed of perspex with two opposing open arms (30 × 5 × 0.25 cm) and two opposing closed arms (30 × 5 × 15 cm) which extended from a central platform (5 × 5 cm). The floor was of matt black perspex. The animals were acclimatized to the experimental room 1 hour prior to experimentation. Experiments were conducted under dim red light, and each 5 minute session was video-taped for later analysis, by an observer unaware of the prior treatment. During this analysis (Observer 3.0, Noldus Information Technology, Wageningen, Netherlands) measurements were made of the time spent on each arm of the maze, the number of entries onto each arm and rearing activity. Measures were also made as described in Table 3.
# The results of the handling response ratings were compared by nonparametric two-way analysis of variance, designed for repeat measures on the same animal. The results of the area under the curve calculations were compared by the Mann-Whitney U-test. The convulsion incidence was analyzed by Fisher's exact probability test. […] The ataxia measurements were analyzed by the Mann-Whitney U-test and the locomotor activity by Student's t-test.
smiles,measurement,setting,value
"NCC1(CC(=O)O)CCCCC1 [Gabapentin, 1-(aminomethyl)-cyclohexane acetic acid]",gastric lesion (square area of visible lesions),"[1]; gabapentin 10 mg twice, 3 hours apart, followed by indomethacin 25 mg/kg",4.2 ± 0.39 mm^2
same,gastric lesion (square area of visible lesions),"[1]; gabapentin 40 mg intragastrically 30 min before indomethacin 25 mg/kg, assessed 3 hours after indomethacin, mean ± SEM",22.3 ± 2.8 mm^2
same,gastric lesion (square area of visible lesions),[1]; gabapentin 60 mg/kg (so in the source) intragastrically 30 min before indomethacin 25 mg/kg,16.5 ± 2.2 mm^2
same,gastric bleeding,[1]; gabapentin pretreatment before indomethacin 25 mg/kg,dramatically reduced
same,Percentage of Group Showing Clonic Convulsions,Audiogenic Convulsions; Gabapentin 5 mg/kg i.p. 2 hours before test,92%
same,Percentage of Group Showing Clonic Convulsions,Audiogenic Convulsions; Gabapentin 20 mg/kg i.p.,70%
same,Percentage of Group Showing Clonic Convulsions,Audiogenic Convulsions; Gabapentin 50 mg/kg i.p.,40%
same,Percentage of Group Showing Clonic Convulsions,Audiogenic Convulsions; Gabapentin 100 mg/kg i.p.,30 p <0.01 c.f Ethanol/Saline group %
same,convulsion incidence after the audiogenic stimulus,"Audiogenic Convulsions; any of the doses tested, 12 hours from the end of the ethanol treatment (data not shown)",No effect
same,decrease in the percentage time spent on the open arms caused by ethanol withdrawal,"Anxiety-Related Behavior; gabapentin 50 mg/kg i.p. 60 min before test, p <0.05 vs saline",decreased this effect
same,decrease in the percentage time spent on the open arms caused by ethanol withdrawal,"Anxiety-Related Behavior; gabapentin 100 mg/kg i.p. 60 min before test, p <0.01 vs saline",decreased this effect
same,mean time on the open arms in control animals,"Anxiety-Related Behavior; gabapentin 100 mg/kg i.p., control diet, mean increased",not significantly different from controls with saline
same,number of protected head dips in control animals,"Anxiety-Related Behavior; gabapentin 100 mg/kg i.p., control diet, p <005 (so in the source)",significantly decreased
same,increase in protected head dips in mice undergoing ethanol withdrawal,"Anxiety-Related Behavior; gabapentin 100 mg/kg i.p., p <0.01 compared with saline",significantly reduced
